Test results taken from US20220304999A1, “REBAMIPIDE FOR USE IN PREVENTION AND/OR TREATMENT OF ARTERIAL STIFFNESS” (SQUARE POWER LTD., priority 2019, published 2022).

Test: Carotid to femoral pulse wave velocity (cfPWV) study in patients suffering from arterial stiffness
Format: in vivo, human
Excerpt: Aging of cardiovascular system is associated with worsening of arterial cushion function resulting in higher pulse pressure (systolic-diastolic amplitude). Pulse wave velocity (PWV), i.e. velocity at which the blood pressure pulse propagates through the circulatory system, is the gold standard method for arterial stiffness quantification. It can be readily measured non-invasively in humans, is highly reproducible, and predicts future cardiovascular events and all-cause mortality independent of conventional cardiovascular risk factors.
Pulse wave travels along the arteries at a velocity rate, which varies according to wall elasticity: the less elastic the wall, the higher the velocity of PW propagation. PWV measures the time of travel of the pressure wave over a known distance and is calculated as the distance between the two positions of the pulse transducer divided by the time delay measured between pressure upstroke at each site.
To study the effect of rebamipide on arteries, a small study on patients suffering from arterial stiffness was performed. […] Carotid to femoral PWV (cfPWV) was measured in both groups at 0, 3, 6, 9 and 12 months.

O=C(NC(Cc1cc(=O)[nH]c2ccccc12)C(=O)O)c1ccc(Cl)cc1 (centres unmarked) [rebamipide, 2-[(4-chlorobenzoyl)amino]-3-(2-oxo-1H-quinolin-4-yl)propanoic acid]
arterial stiffness (carotid to femoral PWV) (patients with PWV above normal for age, no atherosclerosis or hyperlipidemia, rebamipide 200 mg three times a day for 12 months vs placebo, cfPWV at 0, 3, 6, 9, 12 months): gradually decreasing
difference in arterial stiffness between rebamipide and placebo groups (rebamipide 200 mg three times a day vs placebo, 12 months): reached statistical significance
